From patent publication US20020150912A1, “Reporter system for cell surface receptor-ligand binding” (priority 2000, published 2002)
Where two headings read alike, the source gives them in different places.

Key:
[1] = test system: endogenous ATP receptors present in the HeLa cells; assay: HF1 reporter cell luciferase assay, endogenous ATP receptors; assay type: cell-based; conditions: stimulation for 16 hours, read-out: EC50, TRE-mediated luciferase response
Experimental: FIG. 5 illustrates the response of endogenous ATP receptors present in the HeLa cells used to establish a reporter cell line, HF1, of the invention.
A. Dose-response curve following stimulation with varying concentrations of ATP for 16 hours. […] Error bars indicate± SEM.
(§1) The medium was removed and cell lysis buffer added. Plates were stored at −70° C. until further analysis.

[2] = test system: reporter plasmids in HeLa cells; assay: HeLa cells transiently transfected with reporter plasmids, luciferase amplification; assay type: cell-based; conditions: 100 nM PMA, 10^−6 M thapsigargin where added, 10 h, ratio of RLU, stimulated to non-stimulated cells
Experimental: (§2) Cells electroporated for transient expression were stimulated with 100 nM PMA for 10 hours. Amplification was calculated as the ratio between the relative luminescence units (RLU) of stimulated and non-stimulated cells. Results are expressed as mean values+SEM of three to four independent transfection experiments each performed in triplicate; n.d.=not determined.
as §1
(§3) The prototypic reporter plasmids (pcFUS2; pcFUS2-6xSTAT/NFκB; pcFUS3 and pGL3-12xSTAT/NFκB) were used to transfect HeLa cells transiently by electroporation. Cells were stimulated 24 h post transfection with 100 nM PMA or 100 nM PMA and 10^−6 M thapsigargin or treated as controls. After 10 h of incubation, the cells were lysed and assayed.

HeLa cells = assay: Luciferase assay of HeLa cells transiently transfected with prototypic reporter plasmids; assay type: cell-based; conditions: Homo sapiens, 10 h, 100 nM PMA, or 100 nM PMA and 10^−6 M thapsigargin, read-out: Amplification value
Experimental: as §2, §1, §3

chemokine receptor, CCR5 [3] = molecular target: T1, chemokine receptor, CCR5 (Homo sapiens, UniProt P51681); assay: cell-based or functional assay
chemokine receptor, CCR5 [4] = molecular target: T1, chemokine receptor, CCR5; assay: HF1pCCR5 reporter cell luciferase assay; assay type: cell-based; parameters: All receptor ORFs were inserted into the pIRESpuro vector (Clontech) by standard techniques; expressed in transfected cells; host or cells: HeLa-derived HF1 reporter cells (HF1pCCR5), pIRESpuro vector; conditions: CCR5 stably expressed in HF1 reporter cells; read-out: EC50 (agonist concentration giving half maximum effect)
[5] = plasmid pcFUS3 (6 × STAT/NFκB; 9 × AP-1)

T1 sequence (P51681 whole entry): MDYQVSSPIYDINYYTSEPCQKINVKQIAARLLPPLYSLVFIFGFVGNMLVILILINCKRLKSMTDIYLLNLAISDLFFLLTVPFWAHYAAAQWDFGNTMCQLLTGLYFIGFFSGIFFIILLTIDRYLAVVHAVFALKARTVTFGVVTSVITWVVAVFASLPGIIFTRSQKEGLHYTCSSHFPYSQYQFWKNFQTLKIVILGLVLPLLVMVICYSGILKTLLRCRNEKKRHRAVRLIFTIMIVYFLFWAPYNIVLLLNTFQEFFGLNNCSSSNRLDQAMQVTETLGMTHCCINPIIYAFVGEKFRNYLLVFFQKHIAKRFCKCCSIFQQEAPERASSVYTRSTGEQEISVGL

Nc1ncnc2c1ncn2[C@@H]1O[C@H](COP(=O)(O)OP(=O)(O)OP(=O)(O)O)[C@@H](O)[C@H]1O [ATP]
EC50 [1]: 107 µM

CCCCCCCCCCCCCC(=O)O[C@@H]1[C@@H](C)[C@@]2(O)[C@@H](C=C(CO)C[C@]3(O)C(=O)C(C)=C[C@@H]23)[C@@H]2C(C)(C)[C@]12OC(C)=O [PMA]
Amplification value ([2]; plasmid pGL3-12 × STAT/NFκB): 4.16 ± 2.00
Amplification value ([2]; plasmid pcFUS2 (9 × AP-1)): 2.53 ± 2.00
Amplification value ([2]; plasmid pcFUS2-6 × STAT/NFκB): 3.78 ± 1.44
Amplification value [2, 5]: 7.37 ± 3.29
fold induction at 0.1 µM (HeLa cells; plasmid pGL3-12 × STAT/NFκB): 4.16 ± 2
fold induction at 0.1 µM (HeLa cells; plasmid pcFUS2 (9 × AP-1)): 2.53 ± 2
fold induction at 0.1 µM (HeLa cells; plasmid pcFUS2-6 × STAT/NFκB): 3.78 ± 1.44
fold induction at 0.1 µM (HeLa cells; [5]): 7.37 ± 3.29

RANTES (from UniProt P13501 24-91) (ligand)
EC50 (agonist concentration giving half maximum effect), luciferase reporter in HF1 cells stably expressing CCR5 (chemokine receptor, CCR5 [3]): 111 nM

RANTES: a peptide (having the sequence RANTES), agonist of the chemokine receptor CCR5
EC50 (chemokine receptor, CCR5 [4]): 111 nM
